Test results taken from DBAASP.
Converted amounts (≈) assume the structure as drawn. “And” between values parts separate entries of the source, which are not always exact repeats. Equal values may be shown once.

Experiments:
Experiment in all cases: ≥ marks a high value that may be exact or a test limit, other limits are often not marked, values filed in µg/mL are converted to µM
[1] = test system: Staphylococcus aureus ATCC 33591
[2] = test system: Staphylococcus epidermidis ATCC 35984
[3] = test system: Staphylococcus aureus ATCC 25923
[4] = test system: Pseudomonas aeruginosa ATCC 27853
Escherichia coli 363 = test system: Escherichia coli 363
Pseudomonas aeruginosa = test system: Pseudomonas aeruginosa
Staphylococcus aureus = test system: Staphylococcus aureus
Escherichia coli B = test system: Escherichia coli B
Escherichia coli BL21AI = test system: Escherichia coli BL21AI
[5] = test system: Micrococcus luteus ATCC 10240
Bacillus subtilis = test system: Bacillus subtilis
[6] = test system: Salmonella enterica subsp. enterica serovar Typhimurium ATCC 14028
Escherichia coli = test system: Escherichia coli
[7] = test system: Klebsiella pneumoniae ATCC 13883
[8] = test system: Enterococcus faecalis ATCC 29212
[9] = test system: Streptococcus pyogenes ATCC 19615
[10] = test system: Trichosporon beigelii KCTC 7707
[11] = test system: Saccharomyces cerevisiae KCTC 7296
[12] = test system: Candida albicans TIMM 1768
[13] = test system: Escherichia coli BL21(DE3)
[14] = test system: Candida albicans ATCC 24433
[15] = test system: Candida parapsilosis ATCC 22019

CC[C@H](C)[C@H](NC(=O)[C@H](CCCCN)NC(=O)[C@@H](NC(=O)[C@H](Cc1ccccc1)NC(=O)[C@H](C)NC(=O)[C@H](CCCCN)NC(=O)CNC(=O)[C@H](Cc1ccccc1)NC(=O)[C@H](CCCCN)NC(=O)[C@H](CCCCN)NC(=O)[C@H](C)NC(=O)[C@H](CCCCN)NC(=O)[C@H](CCCCN)NC(=O)[C@H](CC(C)C)NC(=O)[C@@H](N)Cc1ccccc1)C(C)C)C(=O)N[C@@H](CC(C)C)C(=O)N[C@@H](CCCCN)C(N)=O [FLKKAKKFGKAFVKILK]
MIC [1]: ≥ 128 µM
MIC [2]: 1.42 µM (≈ 2.83 µg/mL)
MIC [3]: 45.4 µM (≈ 90.5 µg/mL)
MIC [4]: 1 µM (≈ 2 µg/mL)

CC[C@H](C)[C@H](NC(=O)[C@H](CCCCN)NC(=O)[C@H](CO)NC(=O)[C@H](Cc1c[nH]c2ccccc12)NC(=O)[C@H](CC(C)C)NC(=O)CN)C(=O)N[C@@H](CCCCN)C(=O)N[C@@H](CCC(=O)O)C(=O)N[C@H](C(=O)NCC(=O)N[C@@H](CCCCN)C(=O)N[C@@H](CCC(=O)O)C(=O)N[C@@H](C)C(=O)N[C@@H](C)C(=O)N[C@@H](CCCCN)C(=O)N[C@@H](C)C(=O)N[C@@H](C)C(=O)N[C@@H](C)C(=O)N[C@@H](CCCCN)C(=O)N[C@@H](C)C(=O)N[C@@H](C)C(=O)NCC(=O)N[C@@H](CCCCN)C(N)=O)C(C)C [GLWSKIKEVGKEAAKAAAKAAGK]
MIC (Escherichia coli 363): 25 µM (≈ 57.8 µg/mL)
MIC (Pseudomonas aeruginosa): 100 µM (≈ 231 µg/mL)
MIC (Staphylococcus aureus): > 100 µM
MIC (Escherichia coli B): ≥ 50 µM

CC[C@H](C)[C@H](NC(=O)[C@@H]1CCCN1C(=O)[C@H](CCCN=C(N)N)NC(=O)[C@@H]1CCCN1C(=O)[C@H](Cc1cnc[nH]1)NC(=O)[C@@H]1CCCN1C(=O)[C@@H]1CCCN1C(=O)[C@H](CCCN=C(N)N)NC(=O)[C@@H]1CCCN1C(=O)[C@H](CCC(N)=O)NC(=O)[C@@H]1CCCN1C(=O)[C@@H](NC(=O)[C@H](Cc1ccc(O)cc1)NC(=O)[C@@H](NC(=O)[C@@H]1CCCN1C(=O)[C@H](CCCN=C(N)N)NC(=O)[C@H](CC(N)=O)NC(=O)[C@H](CC(N)=O)NC(=O)CN)C(C)C)[C@@H](C)CC)C(=O)N[C@@H](CCCN=C(N)N)C(=O)N[C@H](C(=O)O)C(C)C [GNNRPVYIPQPRPPHPRPIRV]
MIC (Escherichia coli BL21AI): 6.35 µM (≈ 15.6 µg/mL)
MIC [5]: 0.199 µM (≈ 0.49 µg/mL)

CC[C@H](C)[C@H](NC(=O)[C@H](CCCCN)NC(=O)[C@@H](NC(=O)[C@H](Cc1ccccc1)NC(=O)[C@H](C)NC(=O)[C@H](CCCCN)NC(=O)CNC(=O)[C@H](Cc1ccccc1)NC(=O)[C@H](CCCCN)NC(=O)[C@H](CCCCN)NC(=O)[C@H](C)NC(=O)[C@@H](N)CCCCN)C(C)C)C(N)=O [KAKKFGKAFVKI]
MIC [1]: ≥ 375 µM
MIC [2]: ≥ 133 µM
MIC [3]: > 375 µM
MIC [4]: 66.3 µM (≈ 90.4 µg/mL)

CC(C)C[C@H](NC(=O)[C@H](CCCN=C(N)N)NC(=O)CNC(=O)CNC(=O)[C@@H](N)CCCN=C(N)N)C(=O)N[C@@H](Cc1ccc(O)cc1)C(=O)N[C@@H](CCCN=C(N)N)C(=O)N[C@@H](CCCN=C(N)N)C(=O)N[C@@H](CCCN=C(N)N)C(=O)N[C@@H](Cc1ccccc1)C(=O)N[C@H](C(=O)N[C@H](C(=O)NCC(=O)N[C@@H](CCCN=C(N)N)C(N)=O)C(C)C)C(C)C [RGGRLYRRRFVVGR]
MIC (Bacillus subtilis): 8 µM (≈ 14 µg/mL)
MIC [3]: 2 µM (≈ 3.49 µg/mL)
MIC [6]: 8 µM (≈ 14 µg/mL)
MIC (Escherichia coli): 4 µM (≈ 6.99 µg/mL)
MIC [7]: 8 µM (≈ 14 µg/mL)
MIC [8]: 4 µM (≈ 6.99 µg/mL)
MIC [9]: 8 µM (≈ 14 µg/mL)
MIC [4]: 8 µM (≈ 14 µg/mL)

CC[C@H](C)[C@H](NC(=O)[C@@H](NC(=O)[C@@H](N)CCCN=C(N)N)[C@@H](C)CC)C(=O)N[C@@H](CC(=O)O)C(=O)N[C@@H](CC(C)C)C(=O)N[C@@H](CC(C)C)C(=O)N[C@@H](Cc1c[nH]c2ccccc12)C(=O)N[C@@H](CCCN=C(N)N)C(=O)N[C@H](C(=O)N[C@@H](CCCN=C(N)N)C(=O)N[C@@H](CCCN=C(N)N)C(=O)N1CCC[C@H]1C(=O)N[C@@H](Cc1c[nH]c2ccccc12)C(=O)N[C@@H](Cc1c[nH]c2ccccc12)C(=O)N1CCC[C@H]1C(=O)N[C@@H](CCCCN)C(=O)N[C@@H](Cc1ccccc1)C(=O)N[C@H](C(=O)N[C@H](C(=O)N[C@H](C(=O)N[C@@H](Cc1c[nH]c2ccccc12)C(=O)N[C@H](C(=O)N[C@@H](CCCN=C(N)N)C(N)=O)C(C)C)C(C)C)[C@@H](C)O)C(C)C)C(C)C [RIIDLLWRVRRPWWPKFVTVWVR]
MIC [10]: 20 µM (≈ 61.6 µg/mL)
MIC [11]: 14.1 µM (≈ 43.5 µg/mL)
MIC [12]: 10 µM (≈ 30.8 µg/mL)

CC[C@H](C)[C@H](NC(=O)[C@@H](NC(=O)[C@@H](N)CCCN=C(N)N)[C@@H](C)CC)C(=O)N[C@@H](CC(=O)O)C(=O)N[C@@H](CC(C)C)C(=O)N[C@@H](CC(C)C)C(=O)N[C@@H](Cc1c[nH]c2ccccc12)C(=O)N[C@@H](CCCN=C(N)N)C(=O)N[C@H](C(=O)N[C@@H](Cc1c[nH]c2ccccc12)C(=O)N[C@@H](CCCN=C(N)N)C(=O)N1CCC[C@H]1C(=O)N[C@@H](CCC(N)=O)C(=O)N[C@@H](CCCCN)C(=O)N1CCC[C@H]1C(=O)N[C@@H](CCCCN)C(=O)N[C@@H](Cc1ccccc1)C(=O)N[C@H](C(=O)N[C@H](C(=O)N[C@H](C(=O)N[C@@H](Cc1c[nH]c2ccccc12)C(=O)N[C@H](C(=O)N[C@@H](CCCN=C(N)N)C(N)=O)C(C)C)C(C)C)[C@@H](C)O)C(C)C)C(C)C [RIIDLLWRVWRPQKPKFVTVWVR]
MIC [10]: 10 µM (≈ 29.9 µg/mL)
MIC [11]: 10 µM (≈ 29.9 µg/mL)
MIC [12]: 20 µM (≈ 59.8 µg/mL)

CC[C@H](C)[C@H](NC(=O)[C@H](CC(C)C)NC(=O)[C@H](Cc1c[nH]c2ccccc12)NC(=O)[C@@H](NC(=O)[C@H](CC(C)C)NC(=O)[C@H](CCCN=C(N)N)NC(=O)[C@@H](N)CCCN=C(N)N)[C@@H](C)CC)C(=O)N[C@@H](CC(C)C)C(=O)N[C@@H](CCCN=C(N)N)C(=O)N[C@@H](CC(C)C)C(=O)N[C@@H](CC(C)C)C(=O)N[C@@H](CCCN=C(N)N)C(N)=O [RRLIWLILRLLR]
MIC (Bacillus subtilis): 10 µM and 4 µM and 8 µM
MIC [6]: 8 µM and > 4 µM and 10 µM
MIC [7]: 4 µM and 8 µM
MIC [13]: 8 µM (≈ 13 µg/mL)
MIC [8]: 4 µM and 8 µM
MIC [9]: 4 µM and 8 µM
MIC [4]: 8 µM and > 4 µM and 10 µM

CC(C)C[C@H](NC(=O)[C@H](CCCN=C(N)N)NC(=O)[C@H](CCC(N)=O)NC(=O)[C@H](Cc1cnc[nH]1)NC(=O)[C@@H](NC(=O)[C@H](CCCCN)NC(=O)[C@H](CC(C)C)NC(=O)[C@H](CCC(=O)O)NC(=O)[C@H](CO)NC(=O)[C@H](CCCN=C(N)N)NC(=O)[C@@H](N)CO)C(C)C)C(=O)N[C@@H](Cc1ccccc1)C(N)=O [SRSELKVHQRLF]
MIC [14]: ≥ 267 µM
MIC [15]: ≥ 267 µM

CC(C)C[C@H](NC(=O)[C@H](CCCN=C(N)N)NC(=O)[C@H](CCC(N)=O)NC(=O)[C@H](Cc1cnc[nH]1)NC(=O)[C@@H](NC(=O)[C@H](CCCN=C(N)N)NC(=O)[C@H](CC(C)C)NC(=O)[C@H](CCC(=O)O)NC(=O)[C@H](CO)NC(=O)[C@H](CCCN=C(N)N)NC(=O)[C@@H](N)CO)C(C)C)C(=O)N[C@@H](Cc1ccccc1)C(N)=O [SRSELRVHQRLF]
MIC [14]: ≥ 262 µM
MIC [15]: ≥ 262 µM

CC[C@H](C)[C@H](NC(=O)[C@H](CCCN=C(N)N)NC(=O)[C@H](CCCN=C(N)N)NC(=O)[C@@H]1CCCN1C(=O)[C@@H]1CCCN1C(=O)[C@H](CCCCN)NC(=O)[C@@H]1CCCN1C(=O)[C@H](CCCN=C(N)N)NC(=O)[C@@H]1CCCN1C(=O)[C@H](CC(C)C)NC(=O)[C@H](Cc1ccc(O)cc1)NC(=O)[C@@H]1CCCN1C(=O)[C@@H]1CCCN1C(=O)[C@H](CCCCN)NC(=O)[C@H](CC(=O)O)NC(=O)[C@@H](N)C(C)C)C(=O)N[C@@H](Cc1ccc(O)cc1)C(=O)N[C@@H](CC(N)=O)C(=O)N[C@@H](CC(N)=O)C(=O)N[C@@H](CCCN=C(N)N)C(=O)O [VDKPPYLPRPKPPRRIYNNR]
MIC (Escherichia coli BL21AI): 6.46 µM (≈ 16 µg/mL)
MIC [5]: 6.46 µM (≈ 16 µg/mL)
